Experimental data as given in patent publication US10479786B2, “Protein kinase inhibitors” (Princeton Drug Discovery Inc, priority 2016, dated 2019).

What was measured:
LYNa = target: T1, LYNa (Homo sapiens, UniProt P07948); assay: Off-chip Mobility Shift Assay, kinase inhibition; assay type: biochemical; conditions: recombinant LYNa; for inhibition at 0.001 µM: at 1 nM; for inhibition at 0.01 µM: at 10 nM, read-out: inhibition
T1 construct: purchased Carna Biosciences, Inc

BMX = target: T2, BMX (Homo sapiens, UniProt P51813); assay: Off-chip Mobility Shift Assay, kinase inhibition; assay type: biochemical; conditions: recombinant BMX; for inhibition at 0.001 µM: at 1 nM; for inhibition at 0.01 µM: at 10 nM
T2 construct: purchased Carna Biosciences, Inc
T2 sequence (P51813 1-675): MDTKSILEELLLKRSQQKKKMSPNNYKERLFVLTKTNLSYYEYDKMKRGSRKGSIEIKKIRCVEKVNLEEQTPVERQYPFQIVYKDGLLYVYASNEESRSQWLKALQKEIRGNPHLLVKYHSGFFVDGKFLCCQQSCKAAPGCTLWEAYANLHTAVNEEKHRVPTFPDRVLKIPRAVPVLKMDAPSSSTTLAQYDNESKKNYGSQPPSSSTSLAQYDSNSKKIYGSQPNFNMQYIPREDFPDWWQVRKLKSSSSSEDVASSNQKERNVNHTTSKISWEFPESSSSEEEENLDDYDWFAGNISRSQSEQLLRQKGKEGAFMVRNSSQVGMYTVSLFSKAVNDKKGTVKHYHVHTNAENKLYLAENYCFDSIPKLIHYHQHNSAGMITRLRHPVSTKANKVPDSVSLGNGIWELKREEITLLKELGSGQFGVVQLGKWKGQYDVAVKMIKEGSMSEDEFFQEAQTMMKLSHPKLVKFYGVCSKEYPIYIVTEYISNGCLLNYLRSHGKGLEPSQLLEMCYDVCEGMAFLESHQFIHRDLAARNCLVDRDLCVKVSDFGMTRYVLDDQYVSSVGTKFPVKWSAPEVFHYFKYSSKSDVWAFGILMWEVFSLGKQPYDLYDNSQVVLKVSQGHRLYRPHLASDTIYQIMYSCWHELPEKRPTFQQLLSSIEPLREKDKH

PDGFRβ = target: T3, PDGFRβ (Homo sapiens, UniProt P09619); assay: Off-chip Mobility Shift Assay, kinase inhibition; assay type: biochemical; conditions: at 10 nM; recombinant PDGFRβ; read-out: inhibition
T3 construct: purchased Carna Biosciences, Inc
T3 sequence (P09619 33-1106): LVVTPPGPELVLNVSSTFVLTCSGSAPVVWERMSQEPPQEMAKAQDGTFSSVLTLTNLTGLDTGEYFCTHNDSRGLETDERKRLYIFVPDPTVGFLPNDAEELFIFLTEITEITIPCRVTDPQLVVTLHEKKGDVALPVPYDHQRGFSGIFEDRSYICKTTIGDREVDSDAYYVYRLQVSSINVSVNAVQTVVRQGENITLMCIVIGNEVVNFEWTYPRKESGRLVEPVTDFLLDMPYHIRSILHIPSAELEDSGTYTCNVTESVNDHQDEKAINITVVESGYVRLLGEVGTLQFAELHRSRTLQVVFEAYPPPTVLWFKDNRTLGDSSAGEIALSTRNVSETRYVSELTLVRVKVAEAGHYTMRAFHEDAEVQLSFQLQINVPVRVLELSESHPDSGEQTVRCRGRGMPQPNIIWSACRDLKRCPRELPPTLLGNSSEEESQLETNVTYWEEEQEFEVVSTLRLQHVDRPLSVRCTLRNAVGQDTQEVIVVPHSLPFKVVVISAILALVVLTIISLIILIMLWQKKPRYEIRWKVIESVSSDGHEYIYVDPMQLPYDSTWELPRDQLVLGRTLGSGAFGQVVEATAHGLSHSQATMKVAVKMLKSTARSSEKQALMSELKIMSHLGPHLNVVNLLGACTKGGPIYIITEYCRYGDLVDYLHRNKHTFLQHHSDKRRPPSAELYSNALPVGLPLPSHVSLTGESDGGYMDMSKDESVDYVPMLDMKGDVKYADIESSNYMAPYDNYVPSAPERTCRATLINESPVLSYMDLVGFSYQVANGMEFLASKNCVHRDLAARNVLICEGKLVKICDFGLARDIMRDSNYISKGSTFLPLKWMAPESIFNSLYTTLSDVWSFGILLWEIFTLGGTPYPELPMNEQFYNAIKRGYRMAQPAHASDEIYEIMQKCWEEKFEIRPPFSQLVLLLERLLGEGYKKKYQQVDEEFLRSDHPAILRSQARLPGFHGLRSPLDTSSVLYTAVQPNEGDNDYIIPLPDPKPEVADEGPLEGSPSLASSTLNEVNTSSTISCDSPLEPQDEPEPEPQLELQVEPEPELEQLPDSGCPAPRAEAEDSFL

FGR = target: T4, FGR (Homo sapiens, UniProt P09769); assay: Off-chip Mobility Shift Assay, kinase inhibition; assay type: biochemical; conditions: at 10 nM; recombinant FGR; read-out: inhibition
T4 construct: purchased Carna Biosciences, Inc
T4 sequence (P09769 whole entry): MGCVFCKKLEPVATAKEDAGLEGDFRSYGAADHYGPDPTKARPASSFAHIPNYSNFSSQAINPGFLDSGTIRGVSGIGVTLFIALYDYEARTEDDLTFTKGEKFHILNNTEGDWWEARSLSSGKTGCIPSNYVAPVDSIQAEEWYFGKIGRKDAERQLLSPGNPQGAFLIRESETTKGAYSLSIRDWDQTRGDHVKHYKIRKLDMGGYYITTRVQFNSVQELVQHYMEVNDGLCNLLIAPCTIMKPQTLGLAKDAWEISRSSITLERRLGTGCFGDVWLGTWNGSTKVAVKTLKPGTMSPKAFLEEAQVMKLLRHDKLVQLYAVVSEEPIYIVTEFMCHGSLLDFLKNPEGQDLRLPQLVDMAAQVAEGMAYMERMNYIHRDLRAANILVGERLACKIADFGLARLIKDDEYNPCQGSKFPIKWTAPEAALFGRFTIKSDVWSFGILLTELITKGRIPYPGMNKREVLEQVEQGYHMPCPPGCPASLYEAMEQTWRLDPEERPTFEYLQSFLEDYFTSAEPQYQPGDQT

FRK = target: T5, FRK (Homo sapiens, UniProt P42685); assay: Off-chip Mobility Shift Assay, kinase inhibition; assay type: biochemical; conditions: at 10 nM; recombinant FRK
T5 construct: purchased Carna Biosciences, Inc

SU-DHL-4 = assay: Cell inhibition assay (PrestoBlue, 48 h); assay type: cell-based; conditions: Homo sapiens, SU-DHL-4, 48 h, SU-DHL-4 diffuse large B-cell lymphoma cells, read-out: IC50, inhibition of growth
[1] = tested on: battery of selected protein kinases; assay: In vitro screen of a battery of selected protein kinases (summary statement); assay type: biochemical; conditions: BTK, BMX, ABL, ABL(E255K), SRC, ACK, ARG, BLK, DDR2, EPHA, FGR, FMS, FRK, FYN, HCK, LCK, LYN, PDGFRα, PDGFRβ, YES, PIK3CA/PIK3R1, among others
BLK = target: T6, BLK (Homo sapiens, UniProt P51451); assay: Off-chip Mobility Shift Assay, kinase inhibition; assay type: biochemical; conditions: at 10 nM; recombinant BLK
T6 construct: purchased Carna Biosciences, Inc

HCK = target: T7, HCK (Homo sapiens, UniProt P08631); assay: Off-chip Mobility Shift Assay, kinase inhibition; assay type: biochemical; conditions: recombinant HCK; for inhibition at 0.001 µM: at 1 nM; for inhibition at 0.01 µM: at 10 nM, read-out: inhibition
T7 construct: purchased Carna Biosciences, Inc
T7 sequence (P08631 whole entry): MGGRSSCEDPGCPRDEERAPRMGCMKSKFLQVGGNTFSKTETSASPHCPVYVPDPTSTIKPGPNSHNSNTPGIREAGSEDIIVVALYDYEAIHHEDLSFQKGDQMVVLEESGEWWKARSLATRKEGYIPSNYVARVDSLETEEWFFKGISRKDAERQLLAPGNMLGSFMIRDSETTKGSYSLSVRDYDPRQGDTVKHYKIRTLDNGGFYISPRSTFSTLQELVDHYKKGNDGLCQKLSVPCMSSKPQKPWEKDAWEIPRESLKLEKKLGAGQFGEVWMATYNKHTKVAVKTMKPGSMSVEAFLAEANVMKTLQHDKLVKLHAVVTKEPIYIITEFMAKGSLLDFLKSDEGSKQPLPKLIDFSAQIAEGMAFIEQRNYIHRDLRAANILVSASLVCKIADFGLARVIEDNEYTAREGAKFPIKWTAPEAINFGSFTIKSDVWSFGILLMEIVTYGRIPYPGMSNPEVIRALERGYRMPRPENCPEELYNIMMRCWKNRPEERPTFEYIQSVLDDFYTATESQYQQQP

ACK = target: T8, ACK (Homo sapiens, UniProt Q07912); assay: Off-chip Mobility Shift Assay, kinase inhibition; assay type: biochemical; conditions: at 10 nM; recombinant ACK
T8 construct: purchased Carna Biosciences, Inc

Mino = assay: Cell inhibition assay (PrestoBlue, 48 h); assay type: cell-based; conditions: Homo sapiens, Mino cells, read-out: IC50, inhibition of growth
EPHA1 = target: T9, EPHA1 (Homo sapiens, UniProt P21709); assay: Off-chip Mobility Shift Assay, kinase inhibition; assay type: biochemical; conditions: at 10 nM; recombinant EPHA1
T9 construct: purchased Carna Biosciences, Inc
T9 sequence (P21709 26-976): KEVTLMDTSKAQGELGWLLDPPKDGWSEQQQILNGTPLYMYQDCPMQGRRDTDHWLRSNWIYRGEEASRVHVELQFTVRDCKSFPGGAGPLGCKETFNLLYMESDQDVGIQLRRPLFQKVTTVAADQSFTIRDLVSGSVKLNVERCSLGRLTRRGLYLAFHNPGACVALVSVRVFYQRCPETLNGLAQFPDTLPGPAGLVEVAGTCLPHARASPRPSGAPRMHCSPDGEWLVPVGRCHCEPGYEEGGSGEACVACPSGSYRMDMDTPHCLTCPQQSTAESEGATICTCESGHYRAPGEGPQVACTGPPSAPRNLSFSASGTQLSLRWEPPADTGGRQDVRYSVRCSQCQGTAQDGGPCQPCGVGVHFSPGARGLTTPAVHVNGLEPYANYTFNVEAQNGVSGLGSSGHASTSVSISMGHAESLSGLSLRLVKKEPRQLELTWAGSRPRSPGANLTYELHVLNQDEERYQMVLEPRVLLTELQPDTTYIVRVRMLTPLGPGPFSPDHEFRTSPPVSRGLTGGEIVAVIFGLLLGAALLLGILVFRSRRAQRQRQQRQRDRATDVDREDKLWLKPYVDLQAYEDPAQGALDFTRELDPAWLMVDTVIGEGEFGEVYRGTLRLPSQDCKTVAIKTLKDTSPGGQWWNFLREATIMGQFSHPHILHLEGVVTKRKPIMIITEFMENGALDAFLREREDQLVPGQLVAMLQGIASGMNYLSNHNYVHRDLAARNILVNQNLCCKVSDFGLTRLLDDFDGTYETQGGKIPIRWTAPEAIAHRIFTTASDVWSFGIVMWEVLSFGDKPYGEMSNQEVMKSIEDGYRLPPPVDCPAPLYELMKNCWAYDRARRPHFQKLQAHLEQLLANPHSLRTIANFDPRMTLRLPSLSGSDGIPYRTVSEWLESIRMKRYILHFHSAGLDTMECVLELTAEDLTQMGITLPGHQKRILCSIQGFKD

FYN(isoform a) = target: T10, FYN(isoform a) (Homo sapiens, UniProt P06241); assay: Off-chip Mobility Shift Assay, kinase inhibition; assay type: biochemical; conditions: at 10 nM; recombinant FYN(isoform a)
T10 construct: purchased Carna Biosciences, Inc

BTK = target: T11, BTK (Homo sapiens, UniProt Q06187); assay: Off-chip Mobility Shift Assay, kinase inhibition; assay type: biochemical; conditions: recombinant BTK; for inhibition at 0.001 µM: at 1 nM; for inhibition at 0.01 µM: at 10 nM
T11 construct: purchased Carna Biosciences, Inc
T11 sequence (Q06187 whole entry): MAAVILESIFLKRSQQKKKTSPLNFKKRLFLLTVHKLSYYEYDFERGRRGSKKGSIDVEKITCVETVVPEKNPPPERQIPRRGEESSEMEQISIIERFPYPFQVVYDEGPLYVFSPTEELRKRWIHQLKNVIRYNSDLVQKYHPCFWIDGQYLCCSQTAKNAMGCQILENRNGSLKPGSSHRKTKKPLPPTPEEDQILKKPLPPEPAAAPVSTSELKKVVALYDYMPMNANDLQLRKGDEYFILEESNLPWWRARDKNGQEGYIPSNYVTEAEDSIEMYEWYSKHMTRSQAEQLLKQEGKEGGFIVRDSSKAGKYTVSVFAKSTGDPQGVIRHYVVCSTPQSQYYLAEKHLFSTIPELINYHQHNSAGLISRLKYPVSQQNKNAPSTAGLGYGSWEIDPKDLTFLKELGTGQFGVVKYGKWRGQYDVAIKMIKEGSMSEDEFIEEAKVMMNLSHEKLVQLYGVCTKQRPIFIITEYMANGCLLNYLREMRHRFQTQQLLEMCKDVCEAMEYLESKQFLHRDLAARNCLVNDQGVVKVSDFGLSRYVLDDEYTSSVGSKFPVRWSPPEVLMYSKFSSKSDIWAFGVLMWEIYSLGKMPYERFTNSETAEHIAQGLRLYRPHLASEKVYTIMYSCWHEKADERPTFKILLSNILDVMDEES

PDGFRα = target: T12, PDGFRα (Homo sapiens, UniProt P16234); assay: Off-chip Mobility Shift Assay, kinase inhibition; assay type: biochemical; conditions: at 10 nM; recombinant PDGFRα; read-out: inhibition
T12 construct: purchased Carna Biosciences, Inc

PIK3CA/PIK3R1 = target: T13, PIK3CA/PIK3R1 (Homo sapiens, UniProt P42336); assay: Off-chip Mobility Shift Assay, kinase inhibition; assay type: biochemical; conditions: at 10 nM; recombinant PIK3CA/PIK3R1
T13 construct: purchased Carna Biosciences, Inc
T13 sequence (P42336 whole entry): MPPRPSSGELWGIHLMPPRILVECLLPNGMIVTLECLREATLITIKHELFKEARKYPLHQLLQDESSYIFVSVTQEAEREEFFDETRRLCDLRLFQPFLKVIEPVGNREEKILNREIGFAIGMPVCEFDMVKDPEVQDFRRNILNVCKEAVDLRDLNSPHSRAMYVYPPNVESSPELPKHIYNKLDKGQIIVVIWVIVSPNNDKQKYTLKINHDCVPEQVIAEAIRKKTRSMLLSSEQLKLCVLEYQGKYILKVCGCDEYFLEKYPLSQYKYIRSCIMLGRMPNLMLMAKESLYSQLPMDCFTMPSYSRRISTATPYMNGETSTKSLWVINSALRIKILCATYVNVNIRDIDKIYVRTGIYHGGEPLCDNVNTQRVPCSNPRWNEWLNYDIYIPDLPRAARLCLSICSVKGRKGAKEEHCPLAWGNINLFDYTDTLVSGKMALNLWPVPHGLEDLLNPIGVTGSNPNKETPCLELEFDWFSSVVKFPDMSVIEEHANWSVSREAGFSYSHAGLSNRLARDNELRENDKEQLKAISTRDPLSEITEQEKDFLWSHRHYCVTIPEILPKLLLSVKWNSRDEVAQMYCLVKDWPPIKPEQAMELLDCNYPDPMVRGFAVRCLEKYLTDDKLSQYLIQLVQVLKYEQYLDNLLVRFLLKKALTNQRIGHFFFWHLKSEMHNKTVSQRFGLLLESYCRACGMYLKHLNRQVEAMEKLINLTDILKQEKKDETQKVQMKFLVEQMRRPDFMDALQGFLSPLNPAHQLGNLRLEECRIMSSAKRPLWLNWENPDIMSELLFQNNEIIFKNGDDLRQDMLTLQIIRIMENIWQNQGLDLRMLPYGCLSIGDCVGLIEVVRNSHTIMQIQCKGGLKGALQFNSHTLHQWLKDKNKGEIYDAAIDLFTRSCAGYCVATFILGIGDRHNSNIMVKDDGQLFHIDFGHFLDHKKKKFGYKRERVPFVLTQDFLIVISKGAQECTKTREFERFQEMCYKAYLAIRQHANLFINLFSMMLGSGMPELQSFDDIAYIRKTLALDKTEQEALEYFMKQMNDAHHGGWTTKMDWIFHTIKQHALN
T13 sequence (P27986 whole entry partner): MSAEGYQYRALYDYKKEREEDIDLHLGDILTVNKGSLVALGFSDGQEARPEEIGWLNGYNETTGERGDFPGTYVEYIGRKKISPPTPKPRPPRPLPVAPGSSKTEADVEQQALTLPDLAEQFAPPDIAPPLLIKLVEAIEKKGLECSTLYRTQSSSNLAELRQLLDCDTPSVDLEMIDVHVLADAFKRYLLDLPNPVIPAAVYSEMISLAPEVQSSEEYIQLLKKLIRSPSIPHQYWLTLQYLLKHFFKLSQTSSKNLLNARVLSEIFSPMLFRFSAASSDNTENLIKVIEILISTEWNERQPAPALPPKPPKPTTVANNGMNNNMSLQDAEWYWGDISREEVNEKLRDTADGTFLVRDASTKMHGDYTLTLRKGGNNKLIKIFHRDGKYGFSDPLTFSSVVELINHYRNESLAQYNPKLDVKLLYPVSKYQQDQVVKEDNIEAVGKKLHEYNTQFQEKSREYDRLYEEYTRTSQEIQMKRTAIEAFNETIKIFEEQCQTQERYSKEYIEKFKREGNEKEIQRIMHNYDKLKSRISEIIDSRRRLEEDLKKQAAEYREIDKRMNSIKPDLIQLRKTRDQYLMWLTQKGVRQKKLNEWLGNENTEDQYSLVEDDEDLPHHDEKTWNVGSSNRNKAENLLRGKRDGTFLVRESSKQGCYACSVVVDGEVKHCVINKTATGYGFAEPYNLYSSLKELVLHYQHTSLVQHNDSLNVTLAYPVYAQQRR

Row | Compound | inhibition at 0.001 µM (LYNa) [%] | inhibition at 0.01 µM (LYNa) [%] | inhibition at 0.001 µM (BMX) [%] | inhibition at 0.01 µM (BMX) [%] | inhibition at 0.01 µM (PDGFRβ) [%] | inhibition at 0.01 µM (FGR) [%] | inhibition at 0.01 µM (FRK) [%] | IC50 (SU-DHL-4) [nM] | inhibition at 0.01 µM (BLK) [%] | inhibition at 0.001 µM (HCK) [%] | inhibition at 0.01 µM (HCK) [%] | inhibition at 0.01 µM (ACK) [%] | inhibition at 0.01 µM (EPHA1) [%] | inhibition at 0.01 µM (FYN(isoform a)) [%] | inhibition at 0.001 µM (BTK) [%] | inhibition at 0.01 µM (BTK) [%] | inhibition at 0.01 µM (PDGFRα) [%] | inhibition at 0.01 µM (PIK3CA/PIK3R1) [%] | activity to inhibit kinases [1] | IC50 (Mino) [nM]
1 | [2H]c1cc(C)c(NC(=O)c2cnc(Nc3cc(N4CC[C@@H](O)C4)nc(C)n3)s2)c(Cl)c1 [Compound V, N-(2-chloro-4-deutero-6-methylphenyl)-2-[[2-methyl-6-((R)-3-hydroxypyrrolidin-1-yl)pyrimidin-4-yl]amino]thiazole-5-carboxamide] | > 50 | > 50 | > 50 | > 50 | > 50 | > 50 | > 50 | < 20 | > 50 | > 50 | > 50 | > 50 | > 50 | > 50 | > 50 | > 50 | > 50 | > 50 | potent activity | < 50
2 | Cc1nc(Nc2ncc(C(=O)Nc3c(C)cccc3Cl)s2)cc(N2CCCCC2)n1 [Compound VIII, N-(2-chloro-6-methylphenyl)-2-[[2-methyl-6-(piperidin-1-yl)pyrimidin-4-yl]amino]thiazole-5-carboxamide] | > 50 | > 50 | > 50 | > 50 | > 50 | > 50 | > 50 | < 20 | > 50 | > 50 | > 50 | > 50 | > 50 | > 50 | > 50 | > 50 | > 50 | > 50 | potent activity | < 50
3 | Cc1nc(Nc2ncc(C(=O)Nc3c(C)cccc3Cl)s2)cc(N2CCC(O)CC2)n1 [Compound IX, N-(2-chloro-6-methylphenyl)-2-[[2-methyl-6-(4-hydroxypiperidin-1-yl)pyrimidin-4-yl]amino]thiazole-5-carboxamide] | > 50 | > 50 | > 50 | > 50 | > 50 | > 50 | > 50 | < 20 | > 50 | > 50 | > 50 | > 50 | > 50 | > 50 | > 50 | > 50 | > 50 | > 50 | potent activity | < 50

The next lines start with results.

Row | inhibition at 0.001 µM (LYNa) [%] | inhibition at 0.01 µM (LYNa) [%] | inhibition at 0.001 µM (BMX) [%] | inhibition at 0.01 µM (BMX) [%] | inhibition at 0.01 µM (PDGFRβ) [%] | inhibition at 0.01 µM (FGR) [%] | inhibition at 0.01 µM (FRK) [%] | IC50 (SU-DHL-4) [nM] | inhibition at 0.01 µM (BLK) [%] | inhibition at 0.001 µM (HCK) [%] | inhibition at 0.01 µM (HCK) [%] | inhibition at 0.01 µM (ACK) [%] | inhibition at 0.01 µM (EPHA1) [%] | inhibition at 0.01 µM (FYN(isoform a)) [%] | inhibition at 0.001 µM (BTK) [%] | inhibition at 0.01 µM (BTK) [%] | inhibition at 0.01 µM (PDGFRα) [%] | inhibition at 0.01 µM (PIK3CA/PIK3R1) [%] | Compound | activity to inhibit kinases [1] | IC50 (Mino) [nM]
4 | > 50 | > 50 | > 50 | > 50 | > 50 | > 50 | > 50 | < 20 | > 50 | > 50 | > 50 | > 50 | > 50 | > 50 | > 50 | > 50 | > 50 | > 50 | Cc1nc(Nc2ncc(C(=O)Nc3c(C)cccc3Cl)s2)cc(N2CC[C@@H](N)C2)n1 [Compound XIII, N-(2-chloro-6-methylphenyl)-2-[[2-methyl-6-((R)-3-aminopyrrolidin-1-yl)pyrimidin-4-yl]amino]thiazole-5-carboxamide] | potent activity | < 50
5 | > 50 | > 50 | > 50 | > 50 | > 50 | > 50 | > 50 | < 20 | > 50 | > 50 | > 50 | > 50 | > 50 | > 50 | > 50 | > 50 | > 50 | > 50 | Cc1nc(Nc2ncc(C(=O)Nc3c(C)cccc3Cl)s2)cc(N2CC[C@H](O)C2)n1 [Compound X, N-(2-chloro-6-methylphenyl)-2-[[2-methyl-6-((S)-3-hydroxypyrrolidin-1-yl)pyrimidin-4-yl]amino]thiazole-5-carboxamide] | potent activity | < 50
